This assay concerns the target Sts-1PGM (suppressor of T-cell receptor signaling-1 PGM domain) (Mus musculus, UniProt Q8BGG7, E490Q/H380C). As to the kind of experiment: biochemical.

Chain of Sts-1PGM (suppressor of T-cell receptor signaling-1 PGM domain) (Q8BGG7 369-638 H380C/E490Q): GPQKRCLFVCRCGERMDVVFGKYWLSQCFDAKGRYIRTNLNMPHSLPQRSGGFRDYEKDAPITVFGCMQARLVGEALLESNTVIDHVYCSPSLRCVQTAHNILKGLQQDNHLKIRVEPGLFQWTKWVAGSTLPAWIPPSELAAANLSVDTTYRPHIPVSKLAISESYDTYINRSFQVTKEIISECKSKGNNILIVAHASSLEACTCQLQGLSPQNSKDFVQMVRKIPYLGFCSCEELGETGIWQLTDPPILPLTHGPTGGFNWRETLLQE

`COc1ccc2c(c1)Oc1cc(OP(=O)(O)O)ccc1C21OC(=O)c2ccccc21` (stereo not shown) [OMFP]: binding was put at a Kd of 5.71 µM.

The values are drawn from article PMC3968691 (The FEBS journal, 2013).
